Test results taken from patent US20260200947A1, “FUSED CYCLIC COMPOUNDS AND USE THEREOF” (Jacobio Pharmaceuticals Co., Ltd., priority 2022, published 2026).

molecular target: GDP-KRAS G12V (Homo sapiens, UniProt P01116, G12V); assay: biochemical
Sequence (P01116 1-169 isoform P01116-2 G12V): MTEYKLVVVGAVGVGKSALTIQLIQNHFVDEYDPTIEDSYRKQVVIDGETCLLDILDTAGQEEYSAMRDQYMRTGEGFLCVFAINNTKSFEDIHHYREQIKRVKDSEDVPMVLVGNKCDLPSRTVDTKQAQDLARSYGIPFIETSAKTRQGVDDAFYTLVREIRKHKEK

| Structure (SMILES) | IC50 [nM] |
| --- | --- |
| C#Cc1c(F)ccc2cc(N)cc(-c3nc4c5c(nc(OC[C@@]67CCCN6C[C@H](F)C7)nc5c3F)N3CC(C)COC[C@H]3CO4)c12 (stereo partly shown) [Compound 16] | 15.2 |
| N#Cc1c(N)sc2c(F)ccc(-c3c(F)c4c5c(nc(OC[C@@]67CCCN6C[C@H](F)C7)nc5c3F)N3CCCOC[C@H]3CO4)c12 (single isomer, unassigned) [Compound 163A] | 423 |
| N#Cc1c(N)sc2c(F)ccc(-c3cc4c5c(nc(OC[C@@]67CCCN6C[C@H](F)C7)nc5c3F)N3CCCCC[C@H]3CO4)c12 [Compound 139] | 21.6 |
| C#Cc1c(F)ccc2cc(N)cc(-c3nc4c5c(nc(OC[C@@]67CCCN6C[C@H](F)C7)nc5c3F)N3CCC(F)CCC3N4C)c12 (stereo partly shown) [Compound 77] | 15.1 |
| C#Cc1c(F)ccc2cc(N)cc(-c3nc4c5c(nc(OCC(CN6CCOCC6)OC)nc5c3F)N3CCCOCC3N4C)c12 (stereo not shown) [Compound 142] | 65.4 |
| C#Cc1c(F)ccc2cc(N)cc(-c3nc4c5c(nc(OC[C@@]67CCCN6C[C@H](F)C7)nc5c3F)N3CCCC=C(F)C3N4C)c12 (stereo partly shown) [Compound 80] | 12.2 |
| C#Cc1c(F)ccc2cc(N)cc(-c3nc4c5c(nc(OC[C@@H]6CCN6CC(F)F)nc5c3F)N3CCCOC[C@H]3CO4)c12 [Compound 23] | 36.2 |
| C#Cc1c(F)ccc2cc(N)cc(-c3nc4c5c(nc(OCC6(CN7CCOCC7)CCC6)nc5c3F)N3CCCOCC3N4C)c12 (stereo not shown) [Compound 140] | 7.11 |
| C#Cc1c(F)ccc2cc(N)cc(-c3nc4c5c(nc(OC[C@@]67CCCN6C[C@H](F)C7)nc5n5c(n4C)=CC=CCC5)c3F)c12 [Compound 112] | 21.6 |
| C#Cc1c(F)ccc2cc(N)cc(-c3nc4c5c(nc(OC[C@@]67CCCN6C[C@H](F)C7)nc5c3F)N3CCCC3N4C)c12 (stereo partly shown) [Compound 153] | 13.7 |
| C#Cc1c(F)ccc2cc(N)cc(-c3nc4c5c(nc(OC[C@@]67CCCN6C[C@H](F)C7)nc5c3F)N3C(COCCN3C)N4C)c12 (stereo partly shown) [Compound 118] | 11.7 |
| C#Cc1c(F)ccc2cc(N)cc(-c3nc4c5c(nc(OC[C@@]67CCCN6C[C@H](F)C7)nc5c3F)N3C(CCCC[C@@H]3C(C)O)N4C)c12 (stereo partly shown) [Compound 143] | 2.94 |
| C#Cc1c(F)ccc2cc(N)cc(-c3nc4c5c(nc(OC[C@@]67CCCN6C[C@H](F)C7)nc5c3F)N3C/C(=N\OC)COC[C@H]3N4C)c12 [Compound 137] | 1.84 |
| C#Cc1c(F)ccc2cc(N)cc(-c3nc4c5c(nc(OC[C@@]67CCCN6C[C@H](F)C7)nc5c3F)N3CCC(F)(F)CCC3N4C)c12 (stereo partly shown) [Compound 81] | 89.3 |

molecular target: GppNp-KRAS G12V (Homo sapiens, UniProt P01116, G12V); assay: biochemical
Sequence (P01116 1-169 isoform P01116-2 G12V): as above

| Structure (SMILES) | IC50 [nM] |
| --- | --- |
| C#Cc1c(F)ccc2cc(N)cc(-c3nc4c5c(nc(OC[C@@]67CCCN6C[C@H](F)C7)nc5c3F)N3CC(C)COC[C@H]3CO4)c12 (stereo partly shown) [Compound 16] | > 1000 |
| N#Cc1c(N)sc2c(F)ccc(-c3c(F)c4c5c(nc(OC[C@@]67CCCN6C[C@H](F)C7)nc5c3F)N3CCCOC[C@H]3CO4)c12 (single isomer, unassigned) [Compound 163A] | > 1000 |
| N#Cc1c(N)sc2c(F)ccc(-c3cc4c5c(nc(OC[C@@]67CCCN6C[C@H](F)C7)nc5c3F)N3CCCCC[C@H]3CO4)c12 [Compound 139] | > 1000 |
| C#Cc1c(F)ccc2cc(N)cc(-c3nc4c5c(nc(OCC(CN6CCOCC6)OC)nc5c3F)N3CCCOCC3N4C)c12 (stereo not shown) [Compound 142] | > 1000 |
| C#Cc1c(F)ccc2cc(N)cc(-c3nc4c5c(nc(OC[C@@]67CCCN6C[C@H](F)C7)nc5c3F)N3CCCC=C(F)C3N4C)c12 (stereo partly shown) [Compound 80] | > 1000 |
| C#Cc1c(F)ccc2cc(N)cc(-c3nc4c5c(nc(OCC6(CN7CCOCC7)CCC6)nc5c3F)N3CCCOCC3N4C)c12 (stereo not shown) [Compound 140] | > 1000 |
| C#Cc1c(F)ccc2cc(N)cc(-c3nc4c5c(nc(OC[C@@]67CCCN6C[C@H](F)C7)nc5n5c(n4C)=CC=CCC5)c3F)c12 [Compound 112] | > 1000 |
| C#Cc1c(F)ccc2cc(N)cc(-c3nc4c5c(nc(OC[C@@]67CCCN6C[C@H](F)C7)nc5c3F)N3CCCC3N4C)c12 (stereo partly shown) [Compound 153] | > 1000 |
| C#Cc1c(F)ccc2cc(N)cc(-c3nc4c5c(nc(OC[C@@]67CCCN6C[C@H](F)C7)nc5c3F)N3C(COCCN3C)N4C)c12 (stereo partly shown) [Compound 118] | > 1000 |
| C#Cc1c(F)ccc2cc(N)cc(-c3nc4c5c(nc(OC[C@@]67CCCN6C[C@H](F)C7)nc5c3F)N3C(CCCC[C@@H]3C(C)O)N4C)c12 (stereo partly shown) [Compound 143] | 631 |
| C#Cc1c(F)ccc2cc(N)cc(-c3nc4c5c(nc(OC[C@@]67CCCN6C[C@H](F)C7)nc5c3F)N3C/C(=N\OC)COC[C@H]3N4C)c12 [Compound 137] | 486 |
| C#Cc1c(F)ccc2cc(N)cc(-c3nc4c5c(nc(OC[C@@]67CCCN6C[C@H](F)C7)nc5c3F)N3CCC(F)(F)CCC3N4C)c12 (stereo partly shown) [Compound 81] | > 1000 |

molecular target: GDP-KRAS G12D (Homo sapiens, UniProt P01116, G12D); assay: biochemical
Sequence (P01116 1-169 isoform P01116-2 G12D): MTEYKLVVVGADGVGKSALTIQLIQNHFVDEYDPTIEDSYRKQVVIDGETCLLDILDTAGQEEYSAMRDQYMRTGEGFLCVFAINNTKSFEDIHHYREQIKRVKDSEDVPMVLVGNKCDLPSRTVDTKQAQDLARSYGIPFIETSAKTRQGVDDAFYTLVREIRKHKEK

| Structure (SMILES) | IC50 [nM] |
| --- | --- |
| C#Cc1c(F)ccc2cc(N)cc(-c3nc4c5c(nc(OC[C@@]67CCCN6C[C@H](F)C7)nc5c3F)N3CC(C)COC[C@H]3CO4)c12 (stereo partly shown) [Compound 16] | 29.7 |
| N#Cc1c(N)sc2c(F)ccc(-c3c(F)c4c5c(nc(OC[C@@]67CCCN6C[C@H](F)C7)nc5c3F)N3CCCOC[C@H]3CO4)c12 (single isomer, unassigned) [Compound 163A] | 301 |
| N#Cc1c(N)sc2c(F)ccc(-c3cc4c5c(nc(OC[C@@]67CCCN6C[C@H](F)C7)nc5c3F)N3CCCCC[C@H]3CO4)c12 [Compound 139] | 19.6 |
| C#Cc1c(F)ccc2cc(N)cc(-c3nc4c5c(nc(OC[C@@]67CCCN6C[C@H](F)C7)nc5c3F)N3CCC(F)CCC3N4C)c12 (stereo partly shown) [Compound 77] | 7.63 |
| C#Cc1c(F)ccc2cc(N)cc(-c3nc4c5c(nc(OCC(CN6CCOCC6)OC)nc5c3F)N3CCCOCC3N4C)c12 (stereo not shown) [Compound 142] | 233 |
| C#Cc1c(F)ccc2cc(N)cc(-c3nc4c5c(nc(OC[C@@]67CCCN6C[C@H](F)C7)nc5c3F)N3CCCC=C(F)C3N4C)c12 (stereo partly shown) [Compound 80] | 10.6 |
| C#Cc1c(F)ccc2cc(N)cc(-c3nc4c5c(nc(OC[C@@H]6CCN6CC(F)F)nc5c3F)N3CCCOC[C@H]3CO4)c12 [Compound 23] | 30 |
| C#Cc1c(F)ccc2cc(N)cc(-c3nc4c5c(nc(OCC6(CN7CCOCC7)CCC6)nc5c3F)N3CCCOCC3N4C)c12 (stereo not shown) [Compound 140] | 13.8 |
| C#Cc1c(F)ccc2cc(N)cc(-c3nc4c5c(nc(OC[C@@]67CCCN6C[C@H](F)C7)nc5n5c(n4C)=CC=CCC5)c3F)c12 [Compound 112] | 33.4 |
| C#Cc1c(F)ccc2cc(N)cc(-c3nc4c5c(nc(OC[C@@]67CCCN6C[C@H](F)C7)nc5c3F)N3CCCC3N4C)c12 (stereo partly shown) [Compound 153] | 83.4 |
| C#Cc1c(F)ccc2cc(N)cc(-c3nc4c5c(nc(OC[C@@]67CCCN6C[C@H](F)C7)nc5c3F)N3C(COCCN3C)N4C)c12 (stereo partly shown) [Compound 118] | 11.2 |
| C#Cc1c(F)ccc2cc(N)cc(-c3nc4c5c(nc(OC[C@@]67CCCN6C[C@H](F)C7)nc5c3F)N3C(CCCC[C@@H]3C(C)O)N4C)c12 (stereo partly shown) [Compound 143] | 2.51 |
| C#Cc1c(F)ccc2cc(N)cc(-c3nc4c5c(nc(OC[C@@]67CCCN6C[C@H](F)C7)nc5c3F)N3C/C(=N\OC)COC[C@H]3N4C)c12 [Compound 137] | 1.86 |
| C#Cc1c(F)ccc2cc(N)cc(-c3nc4c5c(nc(OC[C@@]67CCCN6C[C@H](F)C7)nc5c3F)N3CCC(F)(F)CCC3N4C)c12 (stereo partly shown) [Compound 81] | 78.8 |

tested on: AsPC-1 cells (K-Ras G12D); assay: not given

| Structure (SMILES) | IC50 [nM] |
| --- | --- |
| C#Cc1c(F)ccc2cc(N)cc(-c3nc4c5c(nc(OC[C@@]67CCCN6C[C@H](F)C7)nc5c3F)N3CCC(F)CCC3N4C)c12 (stereo partly shown) [Compound 77] | 103 |

molecular target: GppNp-KRAS G12D (Homo sapiens, UniProt P01116, G12D); assay: biochemical
Sequence (P01116 1-169 isoform P01116-2 G12D): as above

| Structure (SMILES) | IC50 [nM] |
| --- | --- |
| C#Cc1c(F)ccc2cc(N)cc(-c3nc4c5c(nc(OC[C@@]67CCCN6C[C@H](F)C7)nc5c3F)N3CC(C)COC[C@H]3CO4)c12 (stereo partly shown) [Compound 16] | 651 |
| N#Cc1c(N)sc2c(F)ccc(-c3c(F)c4c5c(nc(OC[C@@]67CCCN6C[C@H](F)C7)nc5c3F)N3CCCOC[C@H]3CO4)c12 (single isomer, unassigned) [Compound 163A] | > 1000 |
| C#Cc1c(F)ccc2cc(N)cc(-c3nc4c5c(nc(OC[C@@]67CCCN6C[C@H](F)C7)nc5c3F)N3CCC(F)CCC3N4C)c12 (stereo partly shown) [Compound 77] | 177 |
| C#Cc1c(F)ccc2cc(N)cc(-c3nc4c5c(nc(OCC(CN6CCOCC6)OC)nc5c3F)N3CCCOCC3N4C)c12 (stereo not shown) [Compound 142] | > 1000 |
| C#Cc1c(F)ccc2cc(N)cc(-c3nc4c5c(nc(OC[C@@]67CCCN6C[C@H](F)C7)nc5c3F)N3CCCC=C(F)C3N4C)c12 (stereo partly shown) [Compound 80] | 314 |
| C#Cc1c(F)ccc2cc(N)cc(-c3nc4c5c(nc(OCC6(CN7CCOCC7)CCC6)nc5c3F)N3CCCOCC3N4C)c12 (stereo not shown) [Compound 140] | > 1000 |
| C#Cc1c(F)ccc2cc(N)cc(-c3nc4c5c(nc(OC[C@@]67CCCN6C[C@H](F)C7)nc5n5c(n4C)=CC=CCC5)c3F)c12 [Compound 112] | 921 |
| C#Cc1c(F)ccc2cc(N)cc(-c3nc4c5c(nc(OC[C@@]67CCCN6C[C@H](F)C7)nc5c3F)N3CCCC3N4C)c12 (stereo partly shown) [Compound 153] | > 1000 |
| C#Cc1c(F)ccc2cc(N)cc(-c3nc4c5c(nc(OC[C@@]67CCCN6C[C@H](F)C7)nc5c3F)N3C(CCCC[C@@H]3C(C)O)N4C)c12 (stereo partly shown) [Compound 143] | 246 |
| C#Cc1c(F)ccc2cc(N)cc(-c3nc4c5c(nc(OC[C@@]67CCCN6C[C@H](F)C7)nc5c3F)N3C/C(=N\OC)COC[C@H]3N4C)c12 [Compound 137] | 210 |
| C#Cc1c(F)ccc2cc(N)cc(-c3nc4c5c(nc(OC[C@@]67CCCN6C[C@H](F)C7)nc5c3F)N3CCC(F)(F)CCC3N4C)c12 (stereo partly shown) [Compound 81] | > 1000 |
